Experimental data published in PubChem BioAssay (NCI).
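Step 1: Grow cells in 96-well plates. Step 2: Expose to compound for 48 hours at 5 concentrations. Step 3: Interpolate endpoints linearly; if unreached, use highest concentration. Here, GI50 denotes the concentration required for 50% inhibition of growth. TGI marks complete inhibition of growth.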

Legend:
Assay in all cases: growth of human tumour cells (NCI), 48 h; in the data active = GI50 below about 0.43 µM; inactive = the rest
[1] = system: 786-0 renal
[2] = system: A498 renal
[3] = system: ACHN renal
[4] = system: BT-549 breast
[5] = system: CAKI-1 renal
[6] = system: CCRF-CEM leukemia
[7] = system: COLO 205 colon
[8] = system: DU-145 prostate
[9] = system: EKVX NSCLC
[10] = system: HCC-2998 colon
[11] = system: HCT-116 colon
[12] = system: HCT-15 colon
[13] = system: HL-60(TB) leukemia
[14] = system: HOP-62 NSCLC
[15] = system: HOP-92 NSCLC
[16] = system: HS 578T breast
[17] = system: HT29 colon
[18] = system: IGROV1 ovarian
[19] = system: K-562 leukemia
[20] = system: KM12 colon
[21] = system: LOX IMVI melanoma
[22] = system: M14 melanoma
[23] = system: MALME-3M melanoma
[24] = system: MCF7 breast
[25] = system: MDA-MB-231 breast
[26] = system: MDA-MB-435
[27] = system: MDA-MB-468 breast
[28] = system: MOLT-4 leukemia
[29] = system: NCI-H226 lung
[30] = system: NCI-H23 lung
[31] = system: NCI-H460 lung
[32] = system: NCI-H522 lung
[33] = system: NCI/ADR-RES ovarian
[34] = system: OVCAR-3 ovarian
[35] = system: OVCAR-4 ovarian
[36] = system: OVCAR-5 ovarian
[37] = system: PC-3 prostate
[38] = system: RPMI-8226 leukemia
[39] = system: RXF 393 renal
[40] = system: SF-268 CNS
[41] = system: SF-295 CNS
[42] = system: SF-539 CNS
[43] = system: SK-MEL-2 melanoma
[44] = system: SK-MEL-28 melanoma
[45] = system: SK-MEL-5 melanoma
[46] = system: SK-OV-3 ovarian
[47] = system: SN12C renal
[48] = system: SNB-19 CNS
[49] = system: SNB-75 CNS
[50] = system: SR leukemia
[51] = system: SW-620 colon
[52] = system: T-47D breast
[53] = system: TK-10 renal
[54] = system: U251 CNS
[55] = system: UACC-257 melanoma
[56] = system: UACC-62 melanoma
[57] = system: UO-31 renal
[58] = system: A549 NSCLC
[59] = system: OVCAR-8 ovarian

COc1cc2c3c(n(CCCN4CCC[C@@H]4CO)c(=O)c2cc1OC)-c1cc2c(cc1C3=O)OCO2
2.69 µM: TGI [10]
12.8 µM: TGI [45]
28.7 µM: TGI [55]
34.3 µM: TGI [43]
1.9 µM: TGI [48]
5.05 µM: TGI [49]
1.28 µM: TGI [27]
13 µM: TGI [16]
2.2 µM: TGI [54]
20.8 µM: TGI [32]
2.64 µM: TGI [18]
30.6 µM: TGI [53]
1.47 µM: TGI [41]
1.68 µM: TGI [14]
3.11 µM: TGI [13]
4.96 µM: TGI [5]
2.75 µM: TGI [25]
10.3 µM: TGI [46]
19.1 µM: TGI [52]
2.54 µM: TGI [26]
2.58 µM: TGI [12]
2.26 µM: TGI [6]
> 100 µM: TGI [19] | TGI [50]
9.63 µM: TGI [15]
2.56 µM: TGI [39]
1.61 µM: TGI [21]
1.71 µM: TGI [8]
4.13 µM: TGI [28]
1.81 µM: TGI [1] | TGI [47]
2.21 µM: TGI [33]
2.41 µM: TGI [17]
2.62 µM: TGI [29]
1.91 µM: TGI [22]
2.88 µM: TGI [9]
3.95 µM: TGI [38]
inactive: GI50 [1] 0.647 µM | GI50 [2] 14 µM | GI50 [4] 1.37 µM | GI50 [7] 1.23 µM | GI50 [9] 1.44 µM | GI50 [10] 1.4 µM | GI50 [11] 0.451 µM | GI50 [12] 1.26 µM | GI50 [13] 0.871 µM | GI50 [15] 4.27 µM | GI50 [16] 4.57 µM | GI50 [17] 1.07 µM | GI50 [18] 1.31 µM | GI50 [19] 1.27 µM | GI50 [20] 1.3 µM | GI50 [22] 0.473 µM | GI50 [23] 1.37 µM | GI50 [25] 1.38 µM | GI50 [26] 1.22 µM | GI50 [29] 0.771 µM | GI50 [32] 3.05 µM | GI50 [34] 1.35 µM | GI50 [35] 1.7 µM | GI50 [36] 1.46 µM | GI50 [37] 1.18 µM | GI50 [38] 0.688 µM | GI50 [39] 0.966 µM | GI50 [43] 16 µM | GI50 [44] 1.65 µM | GI50 [45] 0.966 µM | GI50 [46] 0.52 µM | GI50 [47] 0.461 µM | GI50 [49] 0.63 µM | GI50 [52] 0.576 µM | GI50 [53] 16.2 µM | GI50 [55] 12 µM | GI50 [57] 0.762 µM
2.94 µM: TGI [37]
2.14 µM: TGI [57]
2.91 µM: TGI [20] | TGI [34]
2.28 µM: TGI [40]
1.3 µM: TGI [31]
2.15 µM: TGI [51]
1.52 µM: TGI [30]
15.5 µM: TGI [4]
3.15 µM: TGI [44]
28.3 µM: TGI [2]
5.27 µM: TGI [7]
1.45 µM: TGI [24]
2.05 µM: TGI [11]
1.15 µM: TGI [42]
2.83 µM: TGI [23]
3.33 µM: TGI [35]
active: GI50 [3] 0.293 µM | GI50 [5] 0.344 µM | GI50 [6] 0.027 µM | GI50 [8] 0.223 µM | GI50 [14] 0.191 µM | GI50 [21] 0.226 µM | GI50 [24] 0.0411 µM | GI50 [27] 0.318 µM | GI50 [28] < 0.0233 µM | GI50 [30] 0.207 µM | GI50 [31] 0.0841 µM | GI50 [33] 0.356 µM | GI50 [40] 0.404 µM | GI50 [41] 0.0913 µM | GI50 [42] 0.267 µM | GI50 [48] 0.408 µM | GI50 [50] 0.214 µM | GI50 [51] 0.399 µM | GI50 [54] 0.358 µM | GI50 [56] 0.305 µM
1.32 µM: TGI [3]
2.8 µM: TGI [36]
9.23 µM: TGI [56]

Cc1ccc(S(=O)(=O)c2nc(S(=O)(=O)c3ccc(C)cc3)c(Cl)s2)cc1
inactive: GI50 [1] > 100 µM | GI50 [2] > 100 µM | GI50 [58] > 100 µM | GI50 [3] > 100 µM | GI50 [4] > 100 µM | GI50 [5] > 100 µM | GI50 [6] > 100 µM | GI50 [7] > 100 µM | GI50 [8] > 100 µM | GI50 [9] > 100 µM | GI50 [10] > 100 µM | GI50 [11] > 100 µM | GI50 [12] > 100 µM | GI50 [13] > 100 µM | GI50 [14] > 100 µM | GI50 [15] > 100 µM | GI50 [16] > 100 µM | GI50 [17] > 100 µM | GI50 [18] > 100 µM | GI50 [19] > 100 µM | GI50 [20] > 100 µM | GI50 [21] > 100 µM | GI50 [22] > 100 µM | GI50 [23] > 100 µM | GI50 [24] > 100 µM | GI50 [25] > 100 µM | GI50 [26] > 100 µM | GI50 [27] > 100 µM | GI50 [28] > 100 µM | GI50 [29] > 100 µM | GI50 [30] > 100 µM | GI50 [31] > 100 µM | GI50 [32] > 100 µM | GI50 [33] > 100 µM | GI50 [34] > 100 µM | GI50 [35] > 100 µM | GI50 [36] > 100 µM | GI50 [59] > 100 µM | GI50 [37] > 100 µM | GI50 [38] > 100 µM | GI50 [39] > 100 µM | GI50 [40] > 100 µM | GI50 [41] > 100 µM | GI50 [42] > 100 µM | GI50 [43] > 100 µM | GI50 [44] > 100 µM | GI50 [45] > 100 µM | GI50 [46] > 100 µM | GI50 [47] > 100 µM | GI50 [48] > 100 µM | GI50 [49] > 100 µM | GI50 [51] > 100 µM | GI50 [52] > 100 µM | GI50 [53] > 100 µM | GI50 [54] > 100 µM | GI50 [55] > 100 µM | GI50 [56] > 100 µM | GI50 [57] > 100 µM
> 100 µM: TGI [1] | TGI [2] | TGI [58] | TGI [3] | TGI [4] | TGI [5] | TGI [6] | TGI [7] | TGI [8] | TGI [9] | TGI [10] | TGI [11] | TGI [12] | TGI [13] | TGI [14] | TGI [15] | TGI [16] | TGI [17] | TGI [18] | TGI [19] | TGI [20] | TGI [21] | TGI [22] | TGI [23] | TGI [24] | TGI [25] | TGI [26] | TGI [27] | TGI [28] | TGI [29] | TGI [30] | TGI [31] | TGI [32] | TGI [33] | TGI [34] | TGI [35] | TGI [36] | TGI [59] | TGI [37] | TGI [38] | TGI [39] | TGI [40] | TGI [41] | TGI [42] | TGI [43] | TGI [44] | TGI [45] | TGI [46] | TGI [47] | TGI [48] | TGI [49] | TGI [51] | TGI [52] | TGI [53] | TGI [54] | TGI [55] | TGI [56] | TGI [57]
